Assay results as given in ChEMBL document CHEMBL4359925, “Rational discovery of a highly novel and selective mTOR inhibitor” (Bioorg Med Chem Lett, 2019).
Calls of active or inactive are those of the source. The rule behind the calls is not given here.

Columns and labels:
[1] = Cmax in rat at 3 mg/kg, po; assay type: ADME, organism-based; parameters: dose 3 mg/kg, route oral; details: in vivo
[2] = Tmax in rat at 3 mg/kg, po; assay type: ADME, organism-based; details: in vivo
[3] = Half-life in rat at 3 mg/kg, po; assay type: ADME, organism-based; details: in vivo
[4] = Cmax in mouse at 10.4 mg/kg, iv; assay type: ADME, organism-based; parameters: dose 10.4 mg/kg, route intravenous; details: in vivo
[5] = Clearance in mouse at 10.4 mg/kg, iv; assay type: ADME, organism-based; details: in vivo
[6] = Half-life in mouse at 10.4 mg/kg, iv; assay type: ADME, organism-based; details: in vivo
[7] = Cmax in rat at 100 mg/kg, po; assay type: ADME, organism-based; parameters: dose 100 mg/kg, route oral; details: in vivo
[8] = Half-life in dog at 10 mg/kg, po; assay type: ADME, organism-based, Canis lupus familiaris; details: in vivo
[9] = Tmax in dog at 10 mg/kg, po; assay type: ADME, organism-based, Canis lupus familiaris; details: in vivo
[10] = Cmax in dog at 10 mg/kg, po; assay type: ADME, organism-based, Canis lupus familiaris; parameters: dose 10 mg/kg, route oral; details: in vivo
[11] = Half-life in rat at 4.1 mg/kg, po; assay type: ADME, organism-based; details: in vivo
[12] = Tmax in rat at 4.1 mg/kg, po; assay type: ADME, organism-based; details: in vivo
[13] = Cmax in rat at 4.1 mg/kg, po; assay type: ADME, organism-based; parameters: dose 4.1 mg/kg, route oral; details: in vivo
[14] = Volume of distribution at steady state in mouse at 10.4 mg/kg, iv; assay type: ADME, organism-based; details: in vivo, read-out: Vdss
[15] = Tmax in rat at 100 mg/kg, po; assay type: ADME, organism-based; details: in vivo
[16] = Half-life in rat at 100 mg/kg, po; assay type: ADME, organism-based; details: in vivo
[17] = Cmax in mouse at 26 mg/kg, po; assay type: ADME, organism-based; parameters: dose 26 mg/kg, route oral; details: in vivo
[18] = Tmax in mouse at 26 mg/kg, po; assay type: ADME, organism-based; details: in vivo
[19] = Half-life in mouse at 26 mg/kg, po; assay type: ADME, organism-based; details: in vivo
[20] = Cmax in dog at 0.2 mg/kg, iv; assay type: ADME, organism-based, Canis lupus familiaris; parameters: dose 0.2 mg/kg, route intravenous; details: in vivo
[21] = Clearance in dog at 0.2 mg/kg, iv; assay type: ADME, organism-based, Canis lupus familiaris; details: in vivo
[22] = Half-life in dog at 0.2 mg/kg, iv; assay type: ADME, organism-based, Canis lupus familiaris; details: in vivo
[23] = Volume of distribution at steady state in dog at 0.2 mg/kg, iv; assay type: ADME, organism-based, Canis lupus familiaris; details: in vivo, read-out: Vdss
[24] = Cmax in rat at 93 mg/kg, po; assay type: ADME, organism-based; parameters: dose 93 mg/kg, route oral; details: in vivo
[25] = Tmax in rat at 93 mg/kg, po; assay type: ADME, organism-based; details: in vivo
[26] = Half-life in rat at 93 mg/kg, po; assay type: ADME, organism-based; details: in vivo
[27] = Cmax in rat at 0.8 mg/kg, iv; assay type: ADME, organism-based; parameters: dose 0.8 mg/kg, route intravenous; details: in vivo
[28] = Clearance in rat at 0.8 mg/kg, iv; assay type: ADME, organism-based; details: in vivo
[29] = Half-life in rat at 0.8 mg/kg, iv; assay type: ADME, organism-based; details: in vivo
[30] = Volume of distribution at steady state in rat at 0.8 mg/kg, iv; assay type: ADME, organism-based; details: in vivo, read-out: Vdss
[31] = Cmax in dog at 30 mg/kg, po; assay type: ADME, organism-based, Canis lupus familiaris; parameters: dose 30 mg/kg, route oral; details: in vivo
[32] = Tmax in dog at 30 mg/kg, po; assay type: ADME, organism-based, Canis lupus familiaris; details: in vivo
[33] = Half-life in dog at 30 mg/kg, po; assay type: ADME, organism-based, Canis lupus familiaris; details: in vivo
[34] = Cmax in mouse at 2.8 mg/kg, iv; assay type: ADME, organism-based; parameters: dose 2.8 mg/kg, route intravenous; details: in vivo
[35] = Clearance in mouse at 2.8 mg/kg, iv; assay type: ADME, organism-based; details: in vivo
[36] = Half-life in mouse at 2.8 mg/kg, iv; assay type: ADME, organism-based; details: in vivo
A549 [37] = assay: Synergistic antiproliferative activity against human A549 cells harboring KRAS G12S mutant in presence of erlotinib; assay type: functional, cell-based
A549 [38] = assay: Synergistic antiproliferative activity against human A549 cells harboring KRAS G12S mutant in presence of gemcitabine; assay type: functional, cell-based
NCI-H1395 [39] = assay: Additive antiproliferative activity against human NCI-H1395 cells harboring BRAF G469A in presence of erlotinib; assay type: functional, cell-based
NCI-H1395 [40] = assay: Additive antiproliferative activity against human NCI-H1395 cells harboring BRAF G469A in presence of gemcitabine; assay type: functional, cell-based
NCI-H1650 = assay: Antiproliferative activity against human NCI-H1650 cells; assay type: functional, cell-based
NCI-H460 [41] = assay: Antiproliferative activity against human H460 cells; assay type: functional, cell-based
DU-145 = assay: Antiproliferative activity against human DU145 cells; assay type: functional, cell-based
NCI-H1395 [42] = assay: Antiproliferative activity against human NCI-H1395 cells; assay type: functional, cell-based
MIA PaCa-2 = assay: Antiproliferative activity against human MIAPaCa2 cells; assay type: functional, cell-based
BXPC-3 = assay: Antiproliferative activity against human BxPC3 cells; assay type: functional, cell-based
NCI-H460 [43] = assay: Synergistic antiproliferative activity against human H460 cells harboring KRAS […] mutant in presence of erlotinib
NCI-H460 [44] = assay: Synergistic antiproliferative activity against human H460 cells harboring KRAS […] mutant in presence of gemcitabine

`CC(F)(F)CN1C(=O)[C@]2(C)COCCN2c2nc(-c3ccc(NC(=O)NC4CC4)cc3)ncc21` showed a Cmax [1] of 176 ng/mL, a Tmax [2] of 6.7 h and a half-life [3] of 10.3 h. It also gave a Cmax [4] of 17700 ng/mL, a clearance [5] of 4 mL/min/kg and a half-life [6] of 2 h. The Cmax [7] was 3670 to 6410 ng/mL, the half-life [8] was 9.9 h and the Tmax [9] was 10.7 h. For the same molecule, the Cmax [10] was 549 ng/mL, the half-life [11] was 15.2 h and the Tmax [12] was 4 h. For the same molecule, the Cmax [13] was 150 ng/mL, the Vd [14] was 1.16 L/kg and the Tmax [15] was 4.7 to 14.7 h. For the same molecule, the half-life [16] was 14.7 to 15 h, the Cmax [17] was 11100 ng/mL and the Tmax [18] was 6 h. For the same molecule, the half-life [19] was 9.2 h, the Cmax [20] was 278 ng/mL and the clearance [21] was 3.3 mL/min/kg. For the same molecule, the half-life [22] was 7.5 h, the Vd [23] was 1.12 L/kg and the Cmax [24] was 7220 ng/mL. For the same molecule, the Tmax [25] was 8.7 h, the half-life [26] was 23.4 h and the Cmax [27] was 873 ng/mL. For the same molecule, the clearance [28] was 6.9 mL/min/kg, the half-life [29] was 1.8 h and the Vd [30] was 0.951 L/kg. For the same molecule, the Cmax [31] was 726 ng/mL, the Tmax [32] was 7.3 h and the half-life [33] was 9.2 h. The Cmax [34] was 6860 ng/mL, the clearance [35] was 8.5 mL/min/kg and the half-life [36] was 2.7 h. The Activity (A549 [37]) was “Active”, the Activity (A549 [38]) was “Active” and the Activity (NCI-H1395 [39]) was “Active”. For the same molecule, the Activity (NCI-H1395 [40]) was “Active”, the Activity (NCI-H1650) was “Active” and the Activity (NCI-H460 [41]) was “Active”. The Activity (DU-145) was “Active”, the Activity (NCI-H1395 [42]) was “Active” and the Activity (MIA PaCa-2) was “Active”. The Activity (BXPC-3) was “Active”, the Activity (NCI-H460 [43]) was “Active” and the Activity (NCI-H460 [44]) was “Active”.
